The test system of data set [1] is NIH:OVCAR5 cells. Particulars: 150 µg/mL peptide N4-P10 or 2 µg/mL puromycin, 250 nM Cytotox Green, 72 h, quadruplicate. On the procedure:
As a positive control for cytotoxicity, 2 µg/mL puromycin was used.

The test system of data set [2] is NIH:OVCAR5 cells. Kind of data set: Real-time spheroid formation, round-bottom ultra-low attachment plates, IncuCyte Zoom time-lapse, CellProfiler area. Particulars: for effect on spheroid formation (spheroid size, time-lapse): 96-well round-bottom ultra-low attachment plates, IncuCyte Zoom, first 24 h, DMSO control; for inhibition of spheroid formation at 18 µg/mL: peptide 18 µg/mL; for spheroid contraction / compact spheroid formation, average spheroid area over time: quadruplicate; for cell-cell adhesion at early time points of spheroid formation: before ~6 h, time-lapse imaging. It counts as cell-based, human. Here is the method: (§1) Confluent monolayers of ovarian cancer cell lines (NIH:OVCAR5, N4-KD-VB9, or CAOV3) were detached from the tissue culture flasks using 0.05% Trypsin (ThermoFisher Scientific, Waltham, MA, USA) and resuspended at a concentration of 1.0 × 10^5 cells/mL in complete media. Each well of a 96-well round-bottom ultra-low attachment plate (Corning, Corning NY, USA) was seeded with 50 ul of the resulting suspension. In most cases, the experiments were conducted with eight technical replicates at each condition. The plates were then placed in the gantry of the IncuCyte® Zoom (Sartorius, Ann Arbor, MI, USA) live cell analysis system and incubated at 37 °C in 5% CO2 for 24–72 h, as indicated. Photographs were taken at ~15 min increments for a total of no less than 48 h for the NIH:OVCAR5 cell lines or up to 72 h for the CAOV3 cell line. The initial photographs (t = 0) were taken 10–25 min after the cells were plated, at which time the cells had gravitated to the bottom of the well and were initiating the cell–cell attachments. The resulting footage was analyzed to determine the change in the area of the spheroid aggregates over time. The images were binarized to black and white, and the sum of the area of the small aggregates (black objects) in pixels was determined via the CellProfiler^TM workflow described below. Each image was normalized to the same dimensions, so that the areas could be compared.
Experiments were then repeated using round-bottom ultra-low attachment plates in which the cells were added to the wells containing the peptides at a final concentration of 150 µg/mL. The plates were placed in the IncuCyte® Zoom instrument for 24-48 h of live cell imaging, as described above. Experiments with the peptides selected for further study were performed in triplicate, with 8–16 technical replicates at each treatment condition.
NIH:OVCAR5 cells were added to wells containing from 9 to 150 µg/mL of peptide N4-P10 or peptide N4-P10S, or DMSO control, and then the formation of spheroids was monitored via the IncuCyte® Zoom instrument. The resulting footage was analyzed with the CellProfiler^TM pipeline described below.
A simple four-step CellProfiler™ (open source, Broad Institute, www.cellprofiler.org) pipeline was used to delineate the biologically relevant image contents and to quantify the area of spheroids over time. As part of the CellProfiler™ workflow, cellular edges were enhanced using the Sobel method, the images were converted to binary via Otsu method thresholding, and the area of occupied pixels as a function of overall image size was recorded. The resulting values were exported for analysis and visualization in the R statistical programming language. The values were averaged and the mean with the standard error of the mean (SEM) was determined and graphed. Experiments were routinely performed with eight replicates for each condition, and repeated a minimum of two times on separate days. Since many photographs were taken during the course of each experiment (approximately every 15 min) and the SEM was very small, it is difficult to see the small error bars in the graphs. For this reason, the values for each experimental SEM were included in the figure legends.

For data set [3], the system named is NIH:OVCAR5 cells. The data set is described as follows: Initial screening of Nectin-4 peptides for spheroid formation, flat-bottom ultra-low attachment plates, manual photographs. The format is cell-based, human. Particulars: peptide 150 µg/mL, 96-well flat-bottom ultra-low attachment plates, photographed at 24 and 48 h, 8 technical replicates, data not shown. On the procedure: Twenty-one peptides of 14 amino acids in length encompassing the extracellular domain of Nectin-4 (Figure 2 and Table 1) were synthesized as previously described. The peptides were initially screened at a concentration of 150 µg/mL in 96-well flat-bottom ultra-low attachment plates to identify the section(s) of Nectin-4 that are active in ovarian cancer cell aggregation and spheroid formation. NIH:OVCAR5 cells and peptides were seeded into the plates and manually photographed at 24 and 48 h time points. […] However, the cells treated with the other 18 peptides produced spheroids that appeared to be similar in size to the untreated control cells.
For the initial screening of the twenty-one Nectin-4 peptides, 50 ul of the peptides at 300 µg/mL (for a final working concentration of 150 µg/mL peptide per well) in complete media were added to 96-well flat-bottom ultra-low attachment plates (Corning, Corning, NY, USA). DMSO was used as a negative control. Fifty microliters of NIH:OVCAR5 cells at a concentration of 1.0 × 10^5 cells/mL in complete media were added to each well. The plates were then incubated at 37 °C in 5% CO2 for 48 h, with photographs taken manually at 24 and 48 h on a Nikon® TE200 microscope. A single screening experiment was conducted with 8 technical replicates at each condition to determine which peptides had the most significant effect on spheroid formation.

The subject of data set [4] is CAOV3 cells. The data set is described as follows: Real-time spheroid formation, round-bottom ultra-low attachment plates, IncuCyte Zoom time-lapse, CellProfiler area. The format is cell-based, human. Particulars: peptide 150 µg/mL; for effect on spheroid formation of CAOV3 cells: round-bottom ultra-low attachment plates, 72 h, quadruplicate, DMSO control. On the procedure:
as §1
A simple four-step CellProfiler™ (open source, Broad Institute, www.cellprofiler.org) pipeline was used to delineate the biologically relevant image contents and to quantify the area of spheroids over time. As part of the CellProfiler™ workflow, cellular edges were enhanced using the Sobel method, the images were converted to binary via Otsu method thresholding, and the area of occupied pixels as a function of overall image size was recorded. The resulting values were exported for analysis and visualization in the R statistical programming language. The values were averaged and the mean with the standard error of the mean (SEM) was determined and graphed. […]

In data set [5] the test system is recombinant Nectin-1. Particulars: ovarian cancer cell adhesion to recombinant Nectin-1, short-term binding assay, previous study ref 15; cited from earlier work. An excerpt: In our previous study, peptides N4-P10 and N4-P22 both inhibited cell adhesion by approximately 50%; however, the inhibition of spheroid formation by these two peptides was more disparate, with peptide N4-P10 almost completely inhibiting spheroid formation. In contrast, ...

Where [6] appears, read: peptide 150 µg/mL, 24 h, versus DMSO control.

Turning to `COc1ccc(C[C@H](N)C(=O)N[C@H]2[C@@H](O)[C@H](n3cnc4c(N(C)C)ncnc43)O[C@@H]2CO)cc1` [puromycin, reference compound], in data set [1], the “cytotoxic effect (cell death, integrated fluorescence intensity)” value is listed as “essentially all died within 24 h”.

Regarding “EVKGTTSSRSFKHS [N4-P14, Nectin-4 extracellular domain peptide, AA 186-199]”, in data set [2] (peptide 150 µg/mL), the “effect on spheroid formation (spheroid size, time-lapse)” value (from here on “effect … (spheroid size, time-lapse)”) is on record as “no effect on spheroid formation”.

Consider “QARLRLRVLVPPLP [N4-P10, Nectin-4 extracellular domain peptide, AA 138-151]”, for which, in data set [3], the “effect on formation of spheroids (initial screen)” value (“effect on formation of spheroids” below) is on record as “significantly impeded the formation of spheroids”. For the same compound, the “inhibition of spheroid formation at 18 µg/mL” value in data set [2] (24 h, versus DMSO control) is “marginal effect of inhibiting spheroid formation”. In data set [2] (peptide 150 µg/mL), the “effect … (spheroid size, time-lapse)” value is reported as “most dramatic effect on spheroid formation” and the “cell-cell adhesion at early time points of spheroid formation” value was “appeared to inhibit cell–cell adhesion”. The “spheroid contraction / compact spheroid formation, average spheroid area over time” value in data set [2] (setting [6]) was “did not form compact spheroids”. Also, the “inhibition of spheroid formation at 37.5 to 150 µg/mL” value in data set [2] (peptide 37.5 to 150 µg/mL, 24 h) was “almost complete inhibition of spheroid formation”. Also, the “cytotoxic effect (cell death, integrated fluorescence intensity)” value in data set [1] is reported as “negligible”. In addition, the “size / packing of CAOV3 multicellular aggregates” value in data set [4] (after 72 h of incubation, CellProfiler area) is “not as tightly packed as the spheroids that were formed in the presence of peptide N4-P10S or the DMSO control”. Besides, the “effect on spheroid formation of CAOV3 cells” value in data set [4] is “inhibited the spheroid formation of CAOV3 cells”. Moreover, the “inhibition of cell adhesion to Nectin-1” value in data set [5] is given as “approximately 50%”.

In the case of “RPVQLALPRLVRPL [N4-P10S, scrambled version of peptide N4-P10 used as a control peptide, reference compound]”, in data set [2] (24 h, versus DMSO control), the “inhibition of spheroid formation at 18 µg/mL” value is given as “no effect compared to the DMSO control”. Moreover, in data set [2] (setting [6]), the “spheroid contraction / compact spheroid formation, average spheroid area over time” value was “visually and quantitatively similar to that of the untreated controls”. In addition, the “change in formation of spheroids at any concentration” value in data set [2] (peptide 9-150 µg/mL, 24 h, versus DMSO control) is “no quantifiable change in the formation of spheroids compared with the control”. In addition, the “effect on spheroid formation of CAOV3 cells” value in data set [4] is reported as “formed aggregates over 24 h that contracted into more compact spheroids after 72 h”.

As to “SGKQVDLVSASV [N4-P27, Nectin-4 peptide, AA 339-350, adjacent to membrane]”, the “effect on formation of spheroids” value in data set [3] is listed as “significantly impeded the formation of spheroids”. In data set [2] (peptide 150 µg/mL), the “effect … (spheroid size, time-lapse)” value is reported as “significant impact on the formation of spheroids”. For the same compound, the “inhibition of spheroid formation compared to the control” value in data set [2] (peptide 150 µg/mL, spheroid area at 24 h) is recorded as “almost forty percent”. The “inhibition of cell adhesion to Nectin-1” value in data set [5] is reported as “did not inhibit ovarian cancer cell adhesion to recombinant Nectin-1”.

With “WTRLDGPLPSGVRV [N4-P22, Nectin-4 extracellular domain peptide, AA 282-295]”, the “effect on formation of spheroids” value in data set [3] is recorded as “significantly impeded the formation of spheroids”. Moreover, in data set [2] (peptide 150 µg/mL), the “effect … (spheroid size, time-lapse)” value is listed as “more modest inhibition of spheroid formation” and the “cell-cell adhesion at early time points of spheroid formation” value is “appeared to inhibit cell–cell adhesion”. In addition, the “inhibition of cell adhesion to Nectin-1” value in data set [5] is listed as “approximately 50%”.

The values above are taken from article PMC7370299, “Inhibition of Ovarian Cancer Cell Spheroid Formation by Synthetic Peptides Derived from Nectin-4” (International Journal of Molecular Sciences, 2020).
